Measured values from patent EP3421457B1, “PYRIMIDINE FGFR4 INHIBITORS” (priority 2013, dated 2015).
Like-named read-outs stand apart in the source and are kept apart here. Values belong to the compound of their own block, whether it stands above or below them.

Columns and labels:
[1] = test system: HEP3B; experiment: Cellular Viability assay to obtain GI50 (CellTiter-Glo); assay type: cell-based; conditions: Homo sapiens, 72h, FGF19 amplified line
[2] = test system: Hep3B cells; assay type: in vivo; conditions: Hep3B xenograft; for efficacy (tumor volume): FIG. 4
[3] = test system: HEPG2; experiment: Cellular Viability assay to obtain GI50 (CellTiter-Glo); assay type: cell-based; conditions: Homo sapiens; HEPG2, 72h, FGF19 non-amplified
[4] = test system: JHH7; experiment: as above; assay type: cell-based; conditions: Homo sapiens; JHH7, 72h, FGF19 amplified line
[5] = test system: HUH7; experiment: as above; assay type: cell-based; conditions: Homo sapiens, Huh-7; HUH7, 72h, FGF19 amplified line
[6] = molecular target: T1, FGFR1 (Homo sapiens, UniProt P11362); experiment: IC50 Profiling of Kinase Activity Inhibition (Kinase HotSpot assay); assay type: biochemical; conditions: Table 1
T1 construct: purchased Invitrogen

[7] = molecular target: T2, FGFR4 (Homo sapiens, UniProt P22455); experiment: as above; assay type: biochemical; conditions: Table 1
T2 construct: purchased Invitrogen
T2 sequence (P22455 22-802): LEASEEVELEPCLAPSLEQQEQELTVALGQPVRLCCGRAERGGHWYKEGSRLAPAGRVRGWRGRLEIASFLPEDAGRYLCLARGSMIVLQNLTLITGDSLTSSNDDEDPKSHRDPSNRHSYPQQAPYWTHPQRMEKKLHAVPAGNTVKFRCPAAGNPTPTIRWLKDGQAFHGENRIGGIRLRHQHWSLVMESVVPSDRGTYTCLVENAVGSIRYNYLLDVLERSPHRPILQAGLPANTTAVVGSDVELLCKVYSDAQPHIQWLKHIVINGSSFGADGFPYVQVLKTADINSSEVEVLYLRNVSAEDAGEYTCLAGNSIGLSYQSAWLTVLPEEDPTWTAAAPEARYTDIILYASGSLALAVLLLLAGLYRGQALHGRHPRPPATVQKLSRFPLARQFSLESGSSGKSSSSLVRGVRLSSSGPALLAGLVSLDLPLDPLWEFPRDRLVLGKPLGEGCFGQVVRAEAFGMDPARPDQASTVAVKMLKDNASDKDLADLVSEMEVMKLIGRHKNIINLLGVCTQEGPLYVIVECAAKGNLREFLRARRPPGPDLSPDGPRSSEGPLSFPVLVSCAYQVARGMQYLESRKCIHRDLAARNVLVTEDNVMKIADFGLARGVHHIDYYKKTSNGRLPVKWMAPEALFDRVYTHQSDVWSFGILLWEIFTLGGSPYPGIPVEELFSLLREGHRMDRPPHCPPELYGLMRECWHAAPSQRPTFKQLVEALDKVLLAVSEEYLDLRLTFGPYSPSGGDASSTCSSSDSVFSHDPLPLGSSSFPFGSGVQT

T1 sequence (P11362 22-822): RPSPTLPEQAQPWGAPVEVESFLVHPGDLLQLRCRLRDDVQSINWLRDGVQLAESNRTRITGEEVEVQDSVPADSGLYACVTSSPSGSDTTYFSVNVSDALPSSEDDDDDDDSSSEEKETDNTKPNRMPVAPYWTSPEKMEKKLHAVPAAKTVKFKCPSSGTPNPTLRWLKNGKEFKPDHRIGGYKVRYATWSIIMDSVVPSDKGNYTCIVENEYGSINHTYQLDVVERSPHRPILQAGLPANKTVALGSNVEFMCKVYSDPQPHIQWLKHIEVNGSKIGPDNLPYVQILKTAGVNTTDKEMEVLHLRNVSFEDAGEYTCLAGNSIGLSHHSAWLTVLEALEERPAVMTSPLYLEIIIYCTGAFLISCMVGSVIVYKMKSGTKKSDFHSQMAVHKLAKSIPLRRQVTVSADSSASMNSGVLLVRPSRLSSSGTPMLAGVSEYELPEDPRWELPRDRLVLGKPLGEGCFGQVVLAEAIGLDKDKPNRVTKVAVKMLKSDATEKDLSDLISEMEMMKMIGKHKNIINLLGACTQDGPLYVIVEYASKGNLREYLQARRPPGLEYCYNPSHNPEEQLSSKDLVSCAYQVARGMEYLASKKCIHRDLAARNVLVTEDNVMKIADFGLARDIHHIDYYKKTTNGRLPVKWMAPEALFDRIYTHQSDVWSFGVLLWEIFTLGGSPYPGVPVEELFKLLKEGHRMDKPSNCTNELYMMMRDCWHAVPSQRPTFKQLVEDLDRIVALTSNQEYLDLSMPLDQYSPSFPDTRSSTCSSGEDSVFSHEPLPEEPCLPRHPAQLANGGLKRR

Structure (SMILES): CCN1CCN(c2ccc(Nc3cc(N(C)C(=O)Nc4c(Cl)c(OC)cc(OC)c4Cl)ncn3)cc2)CC1 [BGJ398]
GI50 [1]: 0.074 ± 0.023 µM
efficacy (tumor volume) ([2]; BGJ398 at 60mg/kg): efficacy comparable to compound 108
toxicity (health of animals) ([2]; BGJ398 at 60mg/kg): terminated on Day 11 due to poor health of animals
toxicity (health of animals) ([2]; dosed orally with BGJ398 at 30mg/kg): did not exhibit poor health
GI50 [3]: 2.26 ± 1.18 µM
GI50 [4]: 0.178 ± 0.03 µM
GI50 [5]: 0.231 ± 0.1 µM

IC50 [6]: > 10 µM
IC50 [7]: 0.673 µM
Structure (SMILES): C=CC(=O)Nc1ccccc1Nc1cc(N(C)C(=O)Nc2cccc(OC)c2Cl)ncn1 [Compound 103]

IC50 [6]: > 10 µM
IC50 [7]: 0.201 µM
Structure (SMILES): C=CC(=O)Nc1ccccc1Nc1cc(N(C)C(=O)Nc2cc(OC)cc(OC)c2Cl)ncn1 [Compound 105]

Structure (SMILES): C=CC(=O)Nc1cc(N2CCN(CC)CC2)ccc1Nc1cc(N(C)C(=O)Nc2c(Cl)c(OC)cc(OC)c2Cl)ncn1 [Compound 108, N-(2-(6-(3-(2,6-Dichloro-3,5-dimethoxyphenyl)-1-methylureido)pyrimidin-4-ylamino)-5-(4-ethylpiperazin-1-yl)phenyl)acrylamide]
efficacy (tumor volume) ([2]; dosed for 18 days, Compound 108 versus BGJ398): more efficacious than BGJ398 at tolerable dosage levels
